Source: ChEMBL document CHEMBL1201861, “Genomics of Drug Sensitity in Cancer screening data, Wellcome Trust Sanger Institute”

Assays:
Assay in all cases: cells
Format in all cases: functional, cell-based
Details in all cases: Homo sapiens
[1] = system: D-247MG
Description: SANGER: Inhibition of human D-247MG cell growth in a cell viability assay.

[2] = system: DoTc2-4510
[3] = system: EFO-21;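 also: growth inhibition of EFO-21 cells measured with a viability assay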
Description: SANGER: Inhibition of human EFO-21 cell growth in a cell viability assay.

[4] = system: EFO-27;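 also: growth inhibition of EFO-27 cells, read out with a cell viability assay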
Description: SANGER: Inhibition of human EFO-27 cell growth in a cell viability assay.

[5] = system: G-361
[6] = system: HCC70;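 also: cell viability assay measuring how strongly the compound suppresses proliferation of HCC70 cells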
Description: SANGER: Inhibition of human HCC70 cell growth in a cell viability assay.

[7] = system: HCT-15;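 also: cell viability readout, IC50 reflecting suppression of HCT-15 cell growth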
Description: SANGER: Inhibition of human HCT-15 cell growth in a cell viability assay.

[8] = system: HLE;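 also: growth inhibition of human HLE cells, read out by a cell viability assay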
Description: SANGER: Inhibition of human HLE cell growth in a cell viability assay.

[9] = system: HMV-2 cell line;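 also: growth inhibition of HMV-II cells, read out with a cell viability assay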
Description: SANGER: Inhibition of human HMV-II cell growth in a cell viability assay.

[10] = system: HuO-3N1;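 also: cell viability readout used to measure how strongly compounds suppress proliferation of human HuO-3N1 cells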
Description: SANGER: Inhibition of human HuO-3N1 cell growth in a cell viability assay.

[11] = system: KYSE-150 cell line;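 also: growth inhibition of human KYSE-150 cells, read out with a cell viability assay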
Description: SANGER: Inhibition of human KYSE-150 cell growth in a cell viability assay.

[12] = system: KYSE-270;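 also: cell growth inhibition measured with a viability assay in the human KYSE-270 line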
Description: SANGER: Inhibition of human KYSE-270 cell growth in a cell viability assay.

[13] = system: KYSE-510;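 also: cell viability readout used to measure how strongly growth of the cell line is suppressed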
Description: SANGER: Inhibition of human KYSE-510 cell growth in a cell viability assay.

[14] = system: MDA-MB-453
Description: SANGER: Inhibition of human MDA-MB-453 cell growth in a cell viability assay.

[15] = system: MFE-280;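 also: growth inhibition of MFE-280 cells, determined with a cell viability readout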
Description: SANGER: Inhibition of human MFE-280 cell growth in a cell viability assay.

[16] = system: MG-63;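 also: growth inhibition of human MG-63 cells, read out with a cell viability assay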
Description: SANGER: Inhibition of human MG-63 cell growth in a cell viability assay.

[17] = system: NB17;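 also: growth inhibition of NB17 cells, read out with a cell viability assay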
Description: SANGER: Inhibition of human NB17 cell growth in a cell viability assay.

[18] = system: NB7;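 also: growth inhibition of NB7 cells, read out with a cell viability assay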
Description: SANGER: Inhibition of human NB7 cell growth in a cell viability assay.

[19] = system: NCI-H1623;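 also: cell viability assay used as the read-out for growth inhibition of NCI-H1623 cells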
Description: SANGER: Inhibition of human NCI-H1623 cell growth in a cell viability assay.

[20] = system: NCI-H1651;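 also: Read-out is a cell viability assay, with IC50 expressing inhibition of NCI-H1651 cell growth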
Description: SANGER: Inhibition of human NCI-H1651 cell growth in a cell viability assay.

[21] = system: NCI-H1693;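 also: growth inhibition of the human cell line, read out with a cell viability assay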
Description: SANGER: Inhibition of human NCI-H1693 cell growth in a cell viability assay.

[22] = system: NCI-H1703;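 also: growth inhibition of NCI-H1703 cells, read out via a cell viability assay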
Description: SANGER: Inhibition of human NCI-H1703 cell growth in a cell viability assay.

[23] = system: NCI-H2052;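 also: growth inhibition of NCI-H2052 cells, read out with a cell viability assay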
Description: SANGER: Inhibition of human NCI-H2052 cell growth in a cell viability assay.

[24] = system: NCI-H2122;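 also: growth inhibition of the cells, read out with a cell viability assay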
Description: SANGER: Inhibition of human NCI-H2122 cell growth in a cell viability assay.

[25] = system: NCI-H2170;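 also: cell viability assay measuring growth inhibition of human NCI-H2170 cancer cells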
Description: SANGER: Inhibition of human NCI-H2170 cell growth in a cell viability assay.

[26] = system: NCI-H2452;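 also: growth inhibition of NCI-H2452 cells, read out with a cell viability assay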
Description: SANGER: Inhibition of human NCI-H2452 cell growth in a cell viability assay.

[27] = system: NCI-H292;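 also: growth inhibition of NCI-H292 cells, read out with a cell viability assay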
Description: SANGER: Inhibition of human NCI-H292 cell growth in a cell viability assay.

[28] = system: NUGC-3;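 also: growth inhibition of human NUGC-3 cells, read out with a cell viability assay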
Description: SANGER: Inhibition of human NUGC-3 cell growth in a cell viability assay.

[29] = system: OAW-28;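 also: growth inhibition of OAW-28 cells, read out with a cell viability assay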
Description: SANGER: Inhibition of human OAW-28 cell growth in a cell viability assay.

[30] = system: PFSK-1;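 also: cell viability assay measuring how strongly compounds suppress growth of human PFSK-1 cells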
Description: SANGER: Inhibition of human PFSK-1 cell growth in a cell viability assay.

[31] = system: RCM-1;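 also: growth inhibition of the RCM-1 line, determined with a cell viability readout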
Description: SANGER: Inhibition of human RCM-1 cell growth in a cell viability assay.

[32] = system: SCC-9;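 also: Read-out is a cell viability assay, with values giving inhibition of cell growth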
Description: SANGER: Inhibition of human SCC-9 cell growth in a cell viability assay.

[33] = system: SF-295;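 also: growth inhibition of SF-295 cells, read out with a cell viability assay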
Description: SANGER: Inhibition of human SF295 cell growth in a cell viability assay.

[34] = system: SKG-IIIa;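 also: cell growth inhibition, read out with a cell viability assay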
Description: SANGER: Inhibition of human SKG-IIIa cell growth in a cell viability assay.

[35] = system: SNU-449
Description: SANGER: Inhibition of human SNU-449 cell growth in a cell viability assay.

[36] = system: SW13;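 also: IC50 is inhibition of SW13 cell growth, read out with a cell viability assay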
Description: SANGER: Inhibition of human SW13 cell growth in a cell viability assay.

[37] = system: SW48;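 also: growth inhibition of SW48 cells, read out with a cell viability assay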
Description: SANGER: Inhibition of human SW48 cell growth in a cell viability assay.

[38] = system: SW756;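 also: growth inhibition of human SW756 cells, read out with a cell viability assay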
Description: SANGER: Inhibition of human SW756 cell growth in a cell viability assay.

[39] = system: SW837;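 also: growth inhibition of SW837 cells, determined with a cell viability assay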
Description: SANGER: Inhibition of human SW837 cell growth in a cell viability assay.

[40] = system: T98G;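 also: growth inhibition of T98G cells, read out by a cell viability assay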
Description: SANGER: Inhibition of human T98G cell growth in a cell viability assay.

[41] = system: A253 cell line;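 also: growth inhibition of A253 cells, read out with a cell viability assay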
Description: SANGER: Inhibition of human A253 cell growth in a cell viability assay.

[42] = system: A673;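 also: growth inhibition of human A673 cells, read out through a cell viability assay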
Description: SANGER: Inhibition of human A673 cell growth in a cell viability assay.

[43] = system: BHT-101
Description: SANGER: Inhibition of human BHT-101 cell growth in a cell viability assay.

[44] = system: BT-20;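 also: cell viability assay measuring suppression of growth in human BT-20 cells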
Description: SANGER: Inhibition of human BT-20 cell growth in a cell viability assay.

[45] = system: BXPC-3;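 also: growth inhibition of human BxPC-3 cells, read out by a cell viability assay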
Description: SANGER: Inhibition of human BxPC-3 cell growth in a cell viability assay.

[46] = system: CAL-120;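 also: cell growth inhibition, read out as cell viability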
Description: SANGER: Inhibition of human CAL-120 cell growth in a cell viability assay.

[47] = system: CAL-39;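 also: cell viability assay measuring growth inhibition of CAL-39 cells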
Description: SANGER: Inhibition of human CAL-39 cell growth in a cell viability assay.

[48] = system: CAL-72;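 also: cell viability assay measuring inhibition of proliferation in the CAL-72 cell line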
Description: SANGER: Inhibition of human CAL-72 cell growth in a cell viability assay.

[49] = system: U-118-MG
Description: SANGER: Inhibition of human U-118-MG cell growth in a cell viability assay.

[50] = system: WM-115
Description: SANGER: Inhibition of human WM-115 cell growth in a cell viability assay.

[51] = system: CAPAN-1;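 also: growth suppression of CAPAN-1 cells, read out by a cell viability assay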
Description: SANGER: Inhibition of human CAPAN-1 cell growth in a cell viability assay.

Measured: IC50

O=c1cc(N2CCOCC2)oc2c(-c3cccc4c3sc3ccccc34)cccc12
1.25 µM: [18]
1.74 µM: [27]
0.466 µM: [10]
> 2 µM: all other assays above

Cn1c(=O)n(-c2ccc(C(C)(C)C#N)cc2)c2c3cc(-c4cnc5ccccc5c4)ccc3ncc21 [DACTOLISIB]
0.344 µM: [20]
0.0347 µM: [46]
0.0758 µM: [35]
0.555 µM: [38]
1.33 µM: [39]
0.0673 µM: [10]
0.497 µM: [31]
0.0446 µM: [26]
0.0243 µM: [4]
0.409 µM: [6]
0.136 µM: [21]
0.0478 µM: [19]
0.0259 µM: [11]
0.0658 µM: [13]
0.293 µM: [32] | [48]
> 2 µM: [14] | [29] | [42] | [51]
0.722 µM: [17]
0.03 µM: [43]
0.115 µM: [25]
0.0163 µM: [28]
0.134 µM: [49]
0.131 µM: [12]
0.201 µM: [24] | [37]
0.288 µM: [3]
0.0379 µM: [47]
0.0189 µM: [33]
0.19 µM: [18]
0.112 µM: [44]
0.0665 µM: [36]
0.0681 µM: [50]
0.027 µM: [27]
0.00999 µM: [15]
0.0234 µM: [16]
0.175 µM: [23]
0.129 µM: [34]
0.0826 µM: [41]
0.0299 µM: [40]
0.135 µM: [1]
1.07 µM: [2]
0.0815 µM: [45]
0.0535 µM: [8]
0.0491 µM: [30]

CC(=O)c1c(C)c2cnc(Nc3ccc(N4CCNCC4)cn3)nc2n(C2CCCC2)c1=O [PALBOCICLIB]
2.01 µM: [40]
1 µM: [11]
1.99 µM: [18]
1.08 µM: [47]
0.198 µM: [43]
1.62 µM: [16]
2.85 µM: [27]
2.83 µM: [28]
2.32 µM: [4]
not listed: [5] | [7] | [9] | [22] | [36] | [39]
> 4 µM: all other assays above

CCCS(=O)(=O)Nc1ccc(F)c(C(=O)c2c[nH]c3ncc(Cl)cc23)c1F [PLX-4720]
0.346 µM: [5]
2.88 µM: [10]
6.45 µM: [48]
0.887 µM: [50]
0.707 µM: [43]
6.21 µM: [18]
> 10 µM: all other assays above
